The subject of experiment [1] is BH_E029 (RNA, aptamer) GGGAGAGUGGCAGCUUACAACGUAACGAUGCGGCCGCCACUGAUCCGACUGGUUAACAGAAAGUCCUGACCAGGUAACGAAUGGUCAGGACCGGGCAUUGUUACGAAGUGGGCUGUUGCUUUUCC
The experiment is described as follows: light-up fluorescence kinetics (malachite green). The following applies: 5 mM MgCl2, 1x PBS, pH 6.1, 2.4 mM Trp with malachite green present.

For experiment [2], the system named is Tryptophan aptamer, RNA-MaP condition construct (RNA, aptamer) GGAAAGGCGAGCGGCCGCCACUGUUCGCAGGACCGGGCUCGCCAAAGAAACAACAACAACAAC
The experiment is described as follows: DMS chemical mapping. The following applies: 80 mM KCl, 4 mM MgCl2; 100 mM Tris-HCl, pH 7.5, 37 °C.

Experiment [3] has as its system Tryptophan aptamer, Light-up construct (RNA, aptamer) GGGAACGUCUCCGAGUAGGAGACGAAGGGAGAGUGGCAGCUUACAAACUACAGUUGCGGCCGCCACUGCGAAGGACGGGUCCCUCGAAAGAGGUUGAGUAGAGUGUGAGCGCAGGACCGGGCAACAGUAGUAAGUGGGCUGUUGCUUUUCCAAGCUUAUCGAGUAGAUAAGCAAAAAGAAACAACAACAACAAC
As to the kind of experiment: DMS chemical mapping. The following applies: 5 mM MgCl2, 1x PBS, pH 6.1, 24 °C.

Take `N[C@@H](Cc1c[nH]c2ccccc12)C(=O)O`: the binding entry in experiment [1] is on record as “yes”. The Kd in experiment [2] was 12.09 ± 10.50/-5.19 μM; in experiment [3], 11.59 ± 9.49/-5.00 μM.

Values taken from PMC9170038.
